This data set deals with normotensive Wistar rats. The experiment in a line: Invasive blood pressure measurement in anesthetized rats, i.v. administration. In kind it is in vivo, rat. The method, then: Male Wistar rats with a body weight (BW) of 300-450 g were used as experimental animals. The rats are anesthetized immediately before the experiment with 50 mg/kg pentobarbital Na intraperitoneally (i.p.) or 70 mg/kg inactin i.v. PE tubes are tied into the carotid artery and femoral vein.
To maintain the blood pressure and to prevent formation of thrombi in the PE tubes of the blood vessels, each hour 2.5 ml of heparinized 0.9% strength NaCl solution are infused through the femoral vein and 1.2 ml through the carotid artery.
The arterial blood pressure is measured invasively using a PONEMAH hemodynamic analyzer (HSE, March, Germany). Via the tube in the carotid artery, the arterial blood pressure is mechanoelectrically converted in a Statham transducer (ISOTEC), amplified in a Plugsys (DBA module, type 660), digitized in an A/D converter and input into the PC memory over defined time intervals. The values in the memory are then treated with an adapted algorithm in order to establish the blood pressure parameters to be calculated for heart rate, systolic, diastolic and mean blood pressure.
The ergoline derivatives are administered i.v. through the femoral vein as 5 percent EtOH/NaCl (0.9%) solution, 1 ml/kg in a dosage of 0.5 mg/kg test substance.

Where [1] appears, read: assessment class of duration, 0.5 mg/kg i.v., Table 1.1.
Setting [2] is: assessment class of pressure fall, 0.5 mg/kg i.v., Table 1.1.
[3] abbreviates: change shown as arrow, Wistar rats, 0.5 mg/kg i.v., Table 1.1.
The mark [4] stands for this setting: duration of blood pressure effect, Wistar rats, 0.5 mg/kg i.v., Table 1.1.
Setting [5] is: effect (fall) on arterial blood pressure, anesthetized Wistar rats, 0.5 mg/kg i.v., Table 1.1.
Setting [6] is: assessment class of duration, 0.5 mg/kg i.v., Table 1.2.
Where [7] appears, read: assessment class of pressure fall, 0.5 mg/kg i.v., Table 1.2.
The mark [8] stands for this setting: change shown as arrow, Wistar rats, 0.5 mg/kg i.v., Table 1.2.
Where [9] appears, read: duration of blood pressure effect, 0.5 mg/kg i.v., Table 1.2.
Where [10] appears, read: effect (fall) on arterial blood pressure, Wistar rats, 0.5 mg/kg i.v., Table 1.2.

The text below walks through data of patent US6358967B1, “Ergoline amine derivatives with blood pressure lowering effect” (priority 1998, dated 2002).

Counter-ions that a name gives are not always drawn. Some results are limits rather than exact numbers.

Regarding `Nc1cc(N2CCCCC2)nc(N)[n+]1[O-]` [Minoxidil, reference compound], the “Effect pressure/duration: duration” value under setting [1] is “↓/↓ (up to 10 min)”. The “Effect pressure/duration: pressure” value under setting [2] is “↓/↓ (to 20%)”. Further, the Heart rate result under setting [3] is reported as “→”. Also, under setting [4], the Duration entry is reported as “ca 10 min”. Under setting [5], this compound returned a Diastol. pressure of 8.1%, a Mean pressure of 7.1% and a Systol. pressure of 6.6%.

On to `CC(C)[C@H]1C(=O)N2CCC[C@H]2[C@]2(O)O[C@](NC(=O)[C@@H]3C[C@@H]4c5cccc6[nH]cc(c56)C[C@H]4N(C)C3)(C(C)C)C(=O)N12` [Dihydroergocornine, reference compound], for which, under setting [1], the “Effect pressure/duration: duration” value was “(↓) (< 5 min)”. Moreover, the “Effect pressure/duration: pressure” value under setting [2] was “’”. The Heart rate entry under setting [3] is given as “→”. The same compound showed a Duration under setting [4] of 3 min. Under setting [5], the Diastol. pressure came to 4.3%, the Mean pressure was 3.3% and the Systol. pressure was 5.0%.

As to `CN1CC(CNC(=O)c2c(F)c(F)c(F)c(F)c2C(=O)NC2CCC(N)CC2)CC2c3cccc4[nH]cc(c34)CC21.O=C(O)C(F)(F)F.O=C(O)C(F)(F)F` (stereo not drawn) [Substance 9703156], the “Effect pressure/duration: duration” value under setting [6] is recorded as “↓↓ (up to 30 min)”. Under setting [7], the “Effect pressure/duration: pressure” value is reported as “↓↓↓ (> 30%)”. In addition, under setting [8], the Heart rate entry was “→”. This compound also gave a Duration under setting [9] of 13 min. Moreover, under setting [10], the “Diastol. pressure” value came to 43.4%, the Mean pressure is recorded as 38.6% and the “Systol. pressure” value is on record as 33.4%.

Regarding `O=C(O)C(F)(F)F` [TFA (equimolar), trifluoroacetic acid, reference compound], under setting [1], the “Effect pressure/duration: duration” value was “(↓)/(↓) (< 5 min)”. Moreover, under setting [2], the “Effect pressure/duration: pressure” value was “(↓)/(↓) (to 10%)”. Also, under setting [3], the Heart rate entry is “→”. The compound also returned a Duration under setting [4] of over 1 min. Under setting [5], this compound yielded a Diastol. pressure of 5.1%, a Mean pressure of 4.6% and a Systol. pressure of 4.3%.

For `CN1C[C@H](CN)C[C@@H]2c3cccc4[nH]cc(c34)C[C@H]21` [8β-Aminomethyl-6-methylergoline, reference compound], the “Effect pressure/duration: duration” value under setting [1] is recorded as “↓↓ (up to 30 min)”. In addition, the “Effect pressure/duration: pressure” value under setting [2] is given as “↓ (to 20%)”. Besides, under setting [3], the Heart rate entry is reported as “→”. Also, under setting [4], the Duration is listed as 30 min. Under setting [5], this compound came in with a Diastol. pressure of 14.3%, a Mean pressure of 15.3% and a Systol. pressure of 16.4%.

As to `CN1CC(CNC(=O)c2ccc(SSc3ccc(C(=O)NC4CCC(N)CC4)cn3)nc2)CC2c3cccc4[nH]cc(c34)CC21.O=C(O)C(F)(F)F.O=C(O)C(F)(F)F` (stereo not drawn) [Substance 9703155], under setting [6], the “Effect pressure/duration: duration” value is “↓↓↓ (> 30 min)”. Moreover, the “Effect pressure/duration: pressure” value under setting [7] is listed as “↓↓ (to 30%)”. Under setting [8], the Heart rate result is “→”. In addition, the Duration result under setting [9] is recorded as “ca 60 min”. Under setting [10], the “Diastol. pressure” value was 25.9%, the Mean pressure was 26.9% and the “Systol. pressure” value is 24.7%.

Turning to `CN1CC(CNC(=O)c2ccc(C(=O)NCCCN3CCN(CCCN)CC3)cc2)CC2c3cccc4[nH]cc(c34)CC21.O=C(O)C(F)(F)F.O=C(O)C(F)(F)F.O=C(O)C(F)(F)F.O=C(O)C(F)(F)F` (stereo not drawn) [Substance 9703125], under “rat, in vivo, iv, 0.5 mg/kg”, the Diastol. pressure was 14.0%, the Duration is 90 min, the “Effect pressure/duration: duration” value is given as “↓/↓↓↓ (key: (↓): < 5 min; ↓: up to 10 min; ↓↓: up to 30 min; ↓↓↓: >30 min)” and the “Effect pressure/duration: pressure” value is “↓/↓↓↓ (key: →: no effect to 5%; (↓): to 10%; ↓: to 20%; ↓↓: to 30%; ↓↓↓: >30%)”. Under “rat, in vivo, iv, 0.5 mg/kg”, the Heart rate entry is recorded as “→”, the Mean pressure came to 13.7% and the Systol. pressure stood at 13.1%.

For `CN1CC(CNC(=O)CCCCC(=O)NC2CCC(N)CC2)CC2c3cccc4[nH]cc(c34)CC21.O=C(O)C(F)(F)F.O=C(O)C(F)(F)F` (stereo not drawn) [Substance 9703114], under “rat, in vivo, iv, 0.5 mg/kg”, the Diastol. pressure is given as 20.7%, the Duration was 40 min, the “Effect pressure/duration: duration” value is reported as “↓↓/↓↓↓ (key: (↓): < 5 min; ↓: up to 10 min; ↓↓: up to 30 min; ↓↓↓: >30 min)” and the “Effect pressure/duration: pressure” value is “↓↓/↓↓↓ (key: →: no effect to 5%; (↓): to 10%; ↓: to 20%; ↓↓: to 30%; ↓↓↓: >30%)”. Moreover, for the setting “rat, in vivo, iv, 0.5 mg/kg”, the Heart rate entry is “→”, the Mean pressure worked out at 20.3% and the Systol. pressure amounted to 18.8%.

As for `Cc1nc(C)c(C(=O)NC2CCC(N)CC2)cc1C(=O)NCC1CC2c3cccc4[nH]cc(c34)CC2N(C)C1.O=C(O)C(F)(F)F.O=C(O)C(F)(F)F` (stereo not drawn) [Substance 9703137], the “Effect pressure/duration: duration” value under setting [1] was “↓↓↓/↓↓↓ (>30 min)”. Further, the “Effect pressure/duration: pressure” value under setting [2] is recorded as “↓↓↓/↓↓↓ (>30%)”. Besides, under setting [3], the Heart rate entry is recorded as “→”. Moreover, the Duration result under setting [4] is listed as “ca 95 min”. Under setting [5], this compound yielded a Diastol. pressure of 64.8%, a Mean pressure of 60.2% and a Systol. pressure of 56.5%.

With `CN1CC(CNC(=O)C2CCC(C(=O)NCCCN3CCN(CCCN)CC3)CC2)CC2c3cccc4[nH]cc(c34)CC21.O=C(O)C(F)(F)F.O=C(O)C(F)(F)F.O=C(O)C(F)(F)F.O=C(O)C(F)(F)F` (mixture of isomers) [Substance 9703133], where the note is “rat, in vivo, iv, 0.5 mg/kg”, the Diastol. pressure stood at 50.0%, the Duration result is “ca 60 min”, the “Effect pressure/duration: duration” value was “↓↓↓/↓↓↓ (key: (↓): < 5 min; ↓: up to 10 min; ↓↓: up to 30 min; ↓↓↓: >30 min)” and the “Effect pressure/duration: pressure” value is given as “↓↓↓/↓↓↓ (key: →: no effect to 5%; (↓): to 10%; ↓: to 20%; ↓↓: to 30%; ↓↓↓: >30%)”. For the same compound, where the note is “rat, in vivo, iv, 0.5 mg/kg”, the Heart rate entry was “↑”, the Mean pressure is listed as 45.4% and the Systol. pressure worked out at 48.4%.

For the compound `CN1CC(CNC(=O)CCCCC(=O)NCc2cccc(CN)c2)CC2c3cccc4[nH]cc(c34)CC21.O=C(O)C(F)(F)F.O=C(O)C(F)(F)F` (stereo not drawn) [Substance 9703123], under “rat, in vivo, iv, 0.5 mg/kg”, the Diastol. pressure is recorded as 44.3%, the Duration came to 7 min, the “Effect pressure/duration: duration” value is “↓↓↓/↓ (key: (↓): < 5 min; ↓: up to 10 min; ↓↓: up to 30 min; ↓↓↓: >30 min)” and the “Effect pressure/duration: pressure” value is “↓↓↓/↓ (key: →: no effect to 5%; (↓): to 10%; ↓: to 20%; ↓↓: to 30%; ↓↓↓: >30%)”. Further, under “rat, in vivo, iv, 0.5 mg/kg”, the Heart rate result is recorded as “→”, the Mean pressure stood at 43.4% and the Systol. pressure amounted to 38.0%.

For the compound `CN1CC(CNC(=O)C(F)(F)C(F)(F)C(=O)NC2CCC(N)CC2)CC2c3cccc4[nH]cc(c34)CC21.O=C(O)C(F)(F)F.O=C(O)C(F)(F)F` (stereo not drawn) [Substance 9703157], the “Effect pressure/duration: duration” value under setting [6] is on record as “↓↓ (up to 30 min)”. For the same compound, the “Effect pressure/duration: pressure” value under setting [7] was “↓↓↓ (> 30%)”. The Heart rate entry under setting [8] is “→”. The compound further came in with a Duration under setting [9] of 30 min. Besides, under setting [10], the “Diastol. pressure” value worked out at 49.6%, the Mean pressure was found to be 48.8% and the “Systol. pressure” value worked out at 46.6%.

Consider `CN1CC(CNC(=O)c2ccc(C(=O)NCC3CCCC(CN)C3)cc2)CC2c3cccc4[nH]cc(c34)CC21.O=C(O)C(F)(F)F.O=C(O)C(F)(F)F` (mixture of isomers) [Substance 9703127], for which, under setting [1], the “Effect pressure/duration: duration” value was “↓↓/↓↓ (up to 30 min)”. Under setting [2], the “Effect pressure/duration: pressure” value is on record as “↓↓/↓↓ (to 30%)”. Moreover, the Heart rate result under setting [3] is “→”. Under setting [4], this compound had a Duration of over 25 min. Under setting [5], this compound came in with a Diastol. pressure of 29.0%, a Mean pressure of 27.2% and a Systol. pressure of 24.8%.

Take `CN1CC(CNC(=O)c2ccc(C(=O)NC3CCC(N)CC3)cc2)CC2c3cccc4[nH]cc(c34)CC21.O=C(O)C(F)(F)F.O=C(O)C(F)(F)F` (stereo not drawn) [Substance 9703112]: the “Effect pressure/duration: duration” value under setting [1] is on record as “↓↓/↓↓ (up to 30 min)”. Besides, under setting [2], the “Effect pressure/duration: pressure” value is “↓↓/↓↓ (to 30%)”. In addition, under setting [3], the Heart rate result is on record as “→”. The Duration under setting [4] turned out to be 18 min. Moreover, under setting [5], the Diastol. pressure was found to be 31.7%, the Mean pressure is 29.2% and the Systol. pressure is recorded as 25.2%.

On to `CN1C[C@H](C(N)=O)CC2c3cccc4[nH]cc(c34)C[C@H]21` (stereo partly drawn) [Dihydrolysergamide, reference compound], for which the “Effect pressure/duration: duration” value under setting [1] is listed as “(↓)/(↓) (< 5 min)”. Besides, under setting [2], the “Effect pressure/duration: pressure” value is reported as “(↓)/(↓) (to 10%)”. For the same compound, the Heart rate result under setting [3] is “→”. This compound showed a Duration under setting [4] of 5 min. Under setting [5], this compound returned a Diastol. pressure of 7.1%, a Mean pressure of 8.0% and a Systol. pressure of 8.0%.
